Where two headings read alike, the source gives them in different places.
Assays:
[1] = Liver microsome assay (metabolic stability); assay type: in vitro ADME; conditions: male, CD-1, mouse, pooled liver microsomes
Procedure: The following master solution was prepared before compound addition:
Two separate experiments were performed as follows: a) With Cofactors (NADPH and UDPGA): 40 μL of 10 mM NADPH and 40 μL of 20 mM UDPGA were added to the incubations. The final concentrations of microsomes, NADPH and UDPGA were 0.5 mg/mL, 1 mM and 2 mM, respectively. b) Without Cofactors (NADPH and UDPGA): 10 μL of 20 mg/mL liver microsomes and 80 μL of ultra-pure water were added to the incubations. The final concentration of microsomes was 0.5 mg/mL. The mixture was pre-warmed at 37° C. for 5 minutes.
The reaction was started with the addition of 4 μL of 200 μM control compound or test compound solution. Verapamil was used as positive control in this study. The final concentration of test compound or control compound was 2 μM. The incubation solution was incubated in water bath at 37° C. Aliquots of 50 μL were taken from the reaction solution at 0.5, 5, 15, 30, 45 and 60 minutes. The reaction was stopped by the addition of 5 volumes of cold acetonitrile with IS (100 nM alprazolam, 200 nM caffeine and 100 nM tolbutamide). Samples were centrifuged at 3,220 g for 40 minutes. Aliquot of 100 μL of the supernatant was mixed with 100 μL of ultra-pure H2O and then used for LC-MS/MS analysis. The in vitro half-life (in vitro t1/2) was determined from the slope value of the LC-MS signal of the test compound.

[2] = system: human colon carcinoma HCT-116 WT cells; experiment: Cell growth assay (resazurin), HCT-116 wild-type; assay type: cell-based; conditions: for IC50: Homo sapiens, HCT-116, Table 2
Procedure: The described cell lines for Examples 8 and 9 are cultured in 96-well plates in Dulbecco's modified eagle media (DMEM) without pyruvate (CELLGRO) with 10% dialysed fetal bovine serum (Invitrogen) in 5% CO2 at 37° C. Approximately 2,500 cells are plated in each well in 90 uL of media. After 24 hours cells are treated with various concentrations of inhibitor (time=0 hours), with or without formate. Growth was assessed at multiple time points (time=0, 24, 48, 72 hours) through measurement of fluorescence at 595 nm (excitation at 535 nm) on a BioTek micro titer plate reader after incubation with resazurin (0.01 mg/mL for 1.5 hours). IC50 curves are generated from percent inhibition of growth at 72 hours. […]

HCT cells = experiment: Formate rescue assay in cell growth; assay type: cell-based, human; conditions: Table 2
Procedure: Application of formate is shown to rescue the anti-growth effect in certain human cells treated with SHMT inhibitors in a cell growth assay.
The described cell lines for Examples 8 and 9 are cultured in 96-well plates in Dulbecco's modified eagle media (DMEM) without pyruvate (CELLGRO) with 10% dialysed fetal bovine serum (Invitrogen) in 5% CO2 at 37° C. Approximately 2,500 cells are plated in each well in 90 uL of media. After 24 hours cells are treated with various concentrations of inhibitor (time=0 hours), with or without formate. Growth was assessed at multiple time points (time=0, 24, 48, 72 hours) through measurement of fluorescence at 595 nm (excitation at 535 nm) on a BioTek micro titer plate reader after incubation with resazurin (0.01 mg/mL for 1.5 hours). IC50 curves are generated from percent inhibition of growth at 72 hours.

human SHMT2 = human SHMT2 (Homo sapiens, UniProt P34897)
Procedure: (§2) For the SHMT1 and SHMT2 in vitro enzymatic assays, the rate of 5,10-methylene tetrahydrofolate formation catalyzed by SHMT1/2 was indirectly evaluated by coupling with excess MTHFD2, which converts NAD+ to NADH allowing for reaction monitoring by absorption at 340 nm. […] Inhibition of initial reaction velocity was determined by adding various inhibitors at different concentrations and monitored as described. IC50 may be calculated based on this assay.

LogP value = assay type: physicochemical; conditions: Table 2; head prints (μM)
HCT-116 ΔSHMT2 cells = experiment: Cell growth assay, HCT-116 SHMT2 deletion (knock-out) cells; assay type: cell-based, human; conditions: FIG. 3B; increased potency versus native cells
Procedure: Inhibitors of SHMT were evaluated in various cancer cell lines, in the presence and absence of mutations in mitochondrial folate pathway enzymes.
To analyze the effects of inhibition on each isoform independently, SHMT1 and SHMT2 HCT-116 deletion clones were used.

Su-DHL4 cells [3] = experiment: Cellular growth, SU-DHL4; assay type: cell-based; conditions: SU-DHL4, FIG. 12C legend
Procedure: (§1) Jurkat, REH, Farage, Daudi, Su-DHL2, Su-DHL-4, Su-DHL-6 cells were purchased from ATCC. Cells were subcultured in RPMI supplemented with 10% FBS. For growth assays, cells were seeded at 2×10^5/mL in 5 mL growth media in 12.5 cm flasks. Media was supplemented with sodium formate (1 mM), additional glycine (100 mg/L) and an SHMTi (5 uM). Cells were sampled daily, and counted using trypan blue staining and light microscopy.

Su-DHL4 cells [4] = experiment: Apoptosis by Annexin V surface staining, flow cytometry; assay type: cell-based
Description: In contrast, cell growth is further decreased in Su-DHL4 cells by addition of formate. This can be further exacerbated by removal of glycine from the media. […] Using flow cytometry, apoptosis of Su-DHL4 cells were studied with AnnexinV surface staining (FIGS. 12D and 12E).

Jurkat cells = experiment: Cellular growth assay, Jurkat; assay type: cell-based
Procedure: as §1

[5] = system: human pancreatic cell line 8988T; experiment: Growth of pancreatic cancer cell line 8988T; assay type: cell-based; conditions: 8988T cells
Su-DHL-2 cells = experiment: Cellular growth assay, Su-DHL-2; assay type: cell-based
Procedure: as §1

human SHMT1 = human SHMT1 (Homo sapiens, UniProt P34896); conditions: read-out: SHMT1 IC50; Table 3
Procedure: as §2

[6] = replicate 1, read-out: CLint (replicate 1)
[7] = replicate 2, read-out: CLint (replicate 2)

Sequence of human SHMT2 (P34897 30-504 limits assumed): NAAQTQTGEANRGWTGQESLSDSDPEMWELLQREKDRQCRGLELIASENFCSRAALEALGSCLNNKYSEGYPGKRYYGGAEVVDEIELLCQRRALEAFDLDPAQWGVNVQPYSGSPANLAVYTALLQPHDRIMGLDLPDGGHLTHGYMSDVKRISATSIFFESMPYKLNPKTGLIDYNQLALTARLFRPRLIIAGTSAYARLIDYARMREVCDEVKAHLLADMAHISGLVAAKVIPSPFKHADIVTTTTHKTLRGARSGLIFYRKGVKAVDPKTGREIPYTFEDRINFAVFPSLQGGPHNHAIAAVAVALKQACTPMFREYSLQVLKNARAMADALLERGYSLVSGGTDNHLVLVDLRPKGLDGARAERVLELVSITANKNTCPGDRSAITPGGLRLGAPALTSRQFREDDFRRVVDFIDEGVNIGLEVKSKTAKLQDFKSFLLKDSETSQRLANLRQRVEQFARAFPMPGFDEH
Sequence of human SHMT1 (P34896 2-483 limits assumed): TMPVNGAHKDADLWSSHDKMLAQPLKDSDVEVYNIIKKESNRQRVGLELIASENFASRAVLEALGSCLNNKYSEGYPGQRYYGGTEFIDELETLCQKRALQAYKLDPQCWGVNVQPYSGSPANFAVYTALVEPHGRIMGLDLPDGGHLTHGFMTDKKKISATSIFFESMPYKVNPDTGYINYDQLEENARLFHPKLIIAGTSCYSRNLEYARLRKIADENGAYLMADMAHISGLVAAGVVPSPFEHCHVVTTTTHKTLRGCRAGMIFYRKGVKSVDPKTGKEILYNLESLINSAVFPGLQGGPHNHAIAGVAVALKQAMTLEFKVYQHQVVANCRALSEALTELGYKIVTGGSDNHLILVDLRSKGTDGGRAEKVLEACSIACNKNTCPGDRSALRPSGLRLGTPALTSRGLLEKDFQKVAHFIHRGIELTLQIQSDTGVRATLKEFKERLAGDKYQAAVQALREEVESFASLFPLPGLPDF

Cc1n[nH]c2c1C(c1cc(Br)cc(C(F)(F)F)c1)(C(F)(F)F)C(C#N)=C(N)O2 (stereo not shown) showed a microsomal CLint at 2 μM [1, 6] of 87.8 µL/min/mg and a microsomal CLint at 2 μM [1, 7] of 71.5 µL/min/mg.

For Cc1n[nH]c2c1C(c1cc(C#CCCCN)cc(C(F)(F)F)c1)(C(C)C)C(C#N)=C(N)O2 (stereo not shown) [Compound 8], the IC50 [2] was 2.04 µM and the “% formate rescue” value (HCT cells) was 80.65%.

For Cc1n[nH]c2c1C(c1cc(C#CCCC(=O)O)cc(C(F)(F)F)c1)(C(C)C)C(C#N)=C(N)O2 (stereo not shown) [Compound 4], the IC50 [2] was 15.1 µM, the IC50 (human SHMT2; read-out: SCHMT2 IC50, Table 2) was 0.17 nM and the “% formate rescue” value (HCT cells) was 93.35%.

With Cc1n[nH]c2c1C(c1cc(C#CCCC(=O)N[C@H](CCC(=O)O)C(=O)O)cc(C(F)(F)F)c1)(C(C)C)C(C#N)=C(N)O2 (stereo partly shown) [Compound 70] the IC50 [2] was 100 µM, the logP (LogP value) was 2.49 and the “% formate rescue” value (HCT cells) was 94.89%.

For Cc1n[nH]c2c1C(c1cc(C#CCCC(N)=O)cc(C(F)(F)F)c1)(C(C)C)C(C#N)=C(N)O2 (stereo not shown) [Compound 11], the IC50 [2] was 5.98 µM, the “% formate rescue” value (HCT cells) was 96.98% and the microsomal CLint at 2 μM [1, 6] was 764 µL/min/mg. For the same molecule, the microsomal CLint at 2 μM [1, 7] was 541 µL/min/mg.

With Cc1n[nH]c2c1C(c1cc(C#CCCCO)cc(C(F)(F)F)c1)(C(C)C)C(C#N)=C(N)O2 (stereo not shown) [Compound 61, 6-amino-4-(3-(5-hydroxypent-1-yn-1-yl)-5-(trifluoromethyl)phenyl)-4-isopropyl-3-methyl-1,4-dihydropyrano[2,3-c]pyrazole-5-carbonitrile] the “growth (proliferation) of HCT116 cells” value ([2]; native HCT116, FIG. 3A) was “inhibited growth” and the “growth of SHMT2 knock-out HCT116 cells” value (HCT-116 ΔSHMT2 cells) was “inhibited growth”.

For Cc1n[nH]c2c1C(c1cc(CO)cc(-c3ccccc3)c1)(C(C)C)C(C#N)=C(N)O2 (stereo not shown) [HK-X2], the IC70 (Su-DHL4 cells [3]) was 5 µM, the “apoptotic fraction of cells” value (Su-DHL4 cells [4]; inhibitor alone, untreated 2%) was 8% and the “apoptotic fraction of cells” value (Su-DHL4 cells [4]; inhibitor in the presence of formate) was 15%. The IC80 (Jurkat cells; FIG. 12C legend) was 2500 nM and the “concentrations that impair cell growth” value [5] was under 100 nM.

With Cc1n[nH]c2c1[C@@](c1cc(C(F)(F)F)cc(C(F)(F)F)c1)(C(C)C)C(C#N)=C(N)O2 [HK-16 (PK-2)] the “growth as assessed by cell count” value (Jurkat cells; 5 μM) was “inhibited”, the “rescue of growth inhibition by formate” value (Jurkat cells; 5 μM + 1 mM sodium formate) was “significantly rescued” and the “growth as assessed by cell count” value (Su-DHL-2 cells; Su-DHL-2, 5 μM) was “inhibited”. For the same molecule, the “rescue of growth inhibition by formate” value (Su-DHL-2 cells; Su-DHL-2, 5 μM + 1 mM formate) was “not rescued”.

In the case of Cc1n[nH]c2c1C(c1cc(C#CCCCO)cc(CO)c1)(C(C)C)C(C#N)=C(N)O2 (stereo not shown) [Compound 74], the microsomal CLint at 2 μM [1, 6] is reported as 68 µL/min/mg and the microsomal CLint at 2 μM [1, 7] is reported as 68 µL/min/mg.

Work on COc1cccc(C2(C3CCC3)C(C#N)=C(N)Oc3[nH]nc(C)c32)c1 (stereo not shown) [HK-2] yielded an IC50 (human SHMT2; read-out: SHMT2 IC50, Table 3) of over 5000 nM and an IC50 (human SHMT1) of over 5 µM.

For Cc1n[nH]c2c1C(c1cc(C#CCCC(=O)N[C@@H](CCC(=O)O)C(=O)O)cc(C(F)(F)F)c1)(C(C)C)C(C#N)=C(N)O2 (stereo partly shown) [Compound 69], the IC50 [2] was 100 µM and the “% formate rescue” value (HCT cells) was 96.41%.

For COC(=O)CCC#Cc1cc(C(F)(F)F)cc(C2(C(C)C)C(C#N)=C(N)Oc3[nH]nc(C)c32)c1 (stereo not shown) [Compound 73], the IC50 [2] was 11.1 µM, the logP (LogP value) was 4.17 and the “% formate rescue” value (HCT cells) was 97.33%.

In the case of Cc1n[nH]c2c1C(c1cc(C#CCCO)cc(C(F)(F)F)c1)(C(C)C)C(C#N)=C(N)O2 (stereo not shown) [Compound 2], the IC50 [2] is reported as 6.9 µM, the logP (LogP value) is reported as 3.46 and the “% formate rescue” value (HCT cells) is reported as 100.58%.

For Cc1n[nH]c2c1C(c1cc(C#N)cc(C#CCCCO)c1)(C(C)C)C(C#N)=C(N)O2 (stereo not shown) [Compound 71], the IC50 [2] was 4.96 µM, the “% formate rescue” value (HCT cells) was 97.81% and the microsomal CLint at 2 μM [1, 6] was 285 µL/min/mg. It also gave a microsomal CLint at 2 μM [1, 7] of 203 µL/min/mg.

In the case of Cc1n[nH]c2c1C(c1cc(C#N)cc(C#CCCC(=O)O)c1)(C(C)C)C(C#N)=C(N)O2 (stereo not shown) [Compound 68], the IC50 [2] is reported as 100 µM and the “% formate rescue” value (HCT cells) is reported as 106.02%.

With Cc1n[nH]c2c1C(c1cc(C#CCCC(=O)NC(C)(C)C(=O)O)cc(C(F)(F)F)c1)(C(C)C)C(C#N)=C(N)O2 (stereo not shown) [Compound 72] the IC50 [2] was 200 µM, the logP (LogP value) was 3.38 and the “% formate rescue” value (HCT cells) was 98.35%.

For Cc1n[nH]c2c1C(c1cc(C#CCCCO)cc(C(F)(F)F)c1)(C(C)C)C(C#N)=C(N)O2 (stereo not drawn) [1 (enantiomeric ally active peak)], the IC50 [2] was 1.36 µM and the “% formate rescue” value (HCT cells) was 94.96%.

Cc1n[nH]c2c1C(c1cc(C#CCCCO)cc(C(F)(F)F)c1)(C(C)C)C(C#N)=C(N)O2 (stereo not shown) [Compound 1] showed a logP (LogP value) of 3.91, a microsomal CLint at 2 μM [1, 6] of 597 µL/min/mg and a microsomal CLint at 2 μM [1, 7] of 776 µL/min/mg.

Molecule Cc1n[nH]c2c1C(C)(c1cccc([N+](=O)[O-])c1)C(C#N)=C(N)O2 (stereo not shown) [GD-07] has an IC50 (human SHMT2; read-out: SHMT2 IC50, Table 3) of over 5000 nM.
